Measured values from paper PMC3131786 (Journal of Medicinal Chemistry, 2011).
Values belong to the compound of their own block, whether it stands above or below them.

Assays:
recombinant ATX = recombinant ATX (Homo sapiens, UniProt Q13822); assay: Choline release assay; format: biochemical; conditions: for residual ATX activity: at maximal inhibition in the dose-response curve (Figure S3)
ATX = ATX activity fully restored upon washing out the inhibitor; cited from earlier work
[1] = cited from earlier work

residual ATX activity (recombinant ATX): 10%
Compound: O=C(Nc1ccc(/C=C2\SC(=O)N(Cc3ccc(F)cc3)C2=O)cc1)c1ccc(B(O)O)cc1 [inhibitor 19]

shape of dose-response curve (recombinant ATX; Figure S2, n=5): biphasic curve
Compound: O=C(Nc1ccc(B(O)O)cc1)c1ccc(/C=C2\SC(=O)N(Cc3ccc(F)cc3)C2=O)cc1 [inhibitor 17]

Continued, compound first:

Compound: O=C1S/C(=C\c2ccc(NCc3ccc(B(O)O)cc3)cc2)C(=O)N1Cc1ccc(F)cc1 [inhibitor 36]
residual ATX activity (recombinant ATX): no residual ATX activity

Compound: O=C1S/C(=C\c2ccc(OCc3ccc(B(O)O)cc3)cc2)C(=O)N1Cc1ccc(F)cc1 [inhibitor 1, (Z)-4-[(4-{[3-(4-Fluorobenzyl)-2,4-dioxo-1,3-thiazolan-5-yliden]methyl}phenoxy)methyl]benzene Boronic Acid]
reversibility of binding to ATX (ATX): reversible

Compound: lysophosphatidic acid [LPA]
half-life of LPA in vivo [1]: ~5 min
